Counter-ions that a name gives are not always drawn.
Experiments:
Type in all cases: physicochemical
[1] = Stability studies of 4-MMPPO / tolperisone HCl solutions (liquid-liquid extraction, HPLC-MS/MS)
Experimental: The analytical method employed utilized liquid-liquid extraction and HPLC separation on a C18-column with MS/MS detection and internal standardization.
Test solution: 50 mM HCl in methanol containing 40 mg per 200 μL of tolperisone HCl (containing 4-MMPPO as an impurity)
Samples were prepared for analysis generally as follows. 200 μL of IS working solution was added to the dry weighed bulk material or to the 20 μL aliquots. The samples were vortexed, followed by addition of 200 μL of buffer solution. 0.40 mL of DIPE (diisopropyl ether) was then added, followed by extraction via vortexing, and phase separation via centrifugation. About 250 μL of supernatant solution was then transferred into each 5 mL conical centrifuge vial, followed by addition of 200 μL of buffer solution. The major portion of tolperisone was then re-extracted into the watery phase by vortexing, followed by phase separation by centrifugation. 50 μL of centrifugation supernatant was then transferred to each auto sample vial containing injection solution (75 μL of 50 mM HCl in DMSO/MeOH 2/1). Samples were capped (crimped) and vortexed, followed by injection of 7 μL sample into the HPLC-MS/MS system for analysis.
During stability studies for a calibration range from 1-200 ppm, various solutions: a) 4-MMPPO in tolperisone free solution (“reference solution”), b) tolperisone HCl solution (default concentration of 10 mg/mL) without spiking of any 4-MMPPO (“test solution”), and c) tolperisone HCl solution (default concentration of 10 mg/mL) spiked with 4-MMPPO (“spiked test solution”) were assessed under the following storage conditions: (i) for three freeze thaw cycles prior to sample preparation for analysis, (ii) at bench top temperature for 4 hours, and (iii) at auto sampler conditions for 12 hours after sample preparation for analysis. […] Additionally, 4-MMPPO was stable at −70° C. for 2 months prior to sample preparation for analysis.
During stability studies for a concentration range from 0.05-25 ppm, various solutions: a) 4-MMPPO in tolperisone free solution (“reference solution”), b) tolperisone HCl solution (default concentration of 200 mg/mL) without spiking of any 4-MMPPO (“test solution”), and c) tolperisone HCl solution (default concentration of 200 mg/mL) spiked with 4-MMPPO (“spiked test solution”) were assessed under the following storage conditions: (i) at bench top temperature for 2 hours prior to sample preparation for analysis, and (ii) at auto sampler conditions for 14 hours after sample preparation for analysis.

[2] = HPLC-MS/MS analysis of 4-MMPPO content in tolperisone compositions; conditions: drug lot (API) used in the tablet
Experimental: Tolperisone compositions were obtained from various commercial sources and analyzed for 4-MMPPO content by HPLC-MS/MS.
All samples used in the analytical sequence were prepared for analysis as follows. Sample were homogenized if necessary (e.g., tablets) and weighed. For each tolperisone sample, approximately 20 mg of sample was added into a 20 mL flask. 20 mL of 50 mM HCl in MeOH was added to the flask, which was then placed in an ultrasonic bath for about 5 minutes. The contents of the flask were mixed on a vortexer for about 20 seconds. In instances in which the tolperisone sample had initially been in tablet form, the solution was then centrifuged at 4000 rpm for 2 minutes. 200 μL of the sample was then transferred into a small conical centrifuge vial. 20 μL of an internal standard solution containing deuterated 4-MMPPO, 200 μL of buffer at pH 1, and 0.4 mL of diisopropyl ether (DIPE) were added to the vial. The sample was then extracted by vortexing with a DVX-2500 multi-tube vortexer (2100 rpm) for about 2 minutes (cycle: 5 seconds run, 1 second pause time) and centrifugation (phase separation) at 4000 rpm for 2 minutes. 150 μL of 50 mM HCl in MeOH/DMSO (½) was added into empty designated conical autosampler vials. After centrifugation, 100 μL of supernatant was transferred into these conical autosampler vials. The vials were crimped and vortexed with a DVX-2500 multi-tube vortexer (2100 rpm) for about 1 minute. 7 μL of the prepared sample was then injected immediately into an HPLC-MS/MS system or the sample was stored at a temperature below −20° C. until analysis. The chromatography conditions and mass spectrometry parameters used for analysis of 4-MMPPO are shown below in Tables 1 and 2, respectively.
Lots of tolperisone were obtained from manufacturers A and B, as were the final manufactured tablet formulations. Analyses were carried out as described in Example 1 to determine 4-MMPPO levels in both drug lots and final manufactured formulations.

[3] = as above
[4] = calibration range 1-200 ppm, tolperisone HCl 10 mg/mL, each of: three freeze thaw cycles, bench top 4 hours, auto sampler 12 hours
[5] = range 0.05-25 ppm, tolperisone HCl 200 mg/mL, auto sampler conditions 14 hours after sample preparation

C=C(C)C(=O)c1ccc(C)cc1 [Sample 4-MMPPO, 2-methyl-1-(4-methylphenyl)-propenone]
4-MMPPO concentration on storage of solution [1, 4]: constant 4-MMPPO concentration
4-MMPPO concentration on storage of solution [1, 5]: constant 4-MMPPO concentration
stability prior to sample preparation ([1]; −70° C. for 2 months): stable

Cc1ccc(C(=O)C(C)CN2CCCCC2)cc1 (centres unmarked) [SFO192, tolperisone]
[4-MMPPO in Drug Lot or API], ppm [2]: 21 ppm
[4-MMPPO in Drug Lot or API], ppm ([2]; listed as SF0192): 21 ppm

Cc1ccc(C(=O)C(C)CN2CCCCC2)cc1 (centres unmarked) [tolperisone, 2-methyl-1-(4-methylphenyl)-3-(-piperidinyl)-1-propanone]
4-MMPPO in recrystallized tolperisone ([3]; Example 2, single standard recrystallization from 2-butanone/isopropanol, dried at 45-85° C.): 0.14 % by weight
4-MMPPO in recrystallized tolperisone ([3]; Example 2, subsequent production batches): < 0.05%
4-MMPPO levels in the final recrystallized tolperisone product ([3]; Example 5, 1% (v/v) concentrated aqueous HCl added to the recrystallization mixture): below 6.6 ppm
stability during recrystallization ([3]; in the presence of acid): enhanced stability

Cc1ccc(C(=O)C(C)CN2CCCCC2)cc1 (centres unmarked) [tolperisone HCl, tolperisone hydrochloride]
4-MMPPO concentration on storage of solution [1, 4]: slight increase
4-MMPPO concentration on storage of solution [1, 5]: constant 4-MMPPO concentration
4-MMPPO concentration on storage of solution ([1]; range 0.05-25 ppm, tolperisone HCl 200 mg/mL, bench top temperature 2 hours prior to sample preparation): slight increase
level of 4-MMPPO ([3]; recrystallized, washed with MTBE saturated with citric acid): below 1 ppm

Cc1ccc(C(=O)C(C)CN2CCCCC2)cc1 (centres unmarked) [SE0107, tolperisone]
[4-MMPPO in Drug Lot or API], ppm [2]: 20 ppm

Cc1ccc(C(=O)C(C)CN2CCCCC2)cc1 (centres unmarked) [SB0068, tolperisone]
[4-MMPPO in Drug Lot or API], ppm [2]: 39 ppm

Cc1ccc(C(=O)C(C)CN2CCCCC2)cc1 (centres unmarked) [SD0108, tolperisone]
[4-MMPPO in Drug Lot or API], ppm [2]: 14 ppm

Cc1ccc(C(=O)C(C)CN2CCCCC2)cc1 (centres unmarked) [SF0191, tolperisone]
[4-MMPPO in Drug Lot or API], ppm [2]: 22 ppm

— patent publication US20090253743A1, “COMPOSITIONS OF TOLPERISONE” (Avigen, Inc., priority 2007, published 2009)
